Data reported in patent US4732901A, “Certain pyridyl, thienyl or furyl propenoic acids or esters having anti-inflammatory anti-allergic properties” (Beecham Group p.l.c., priority 1985, dated 1988).

Tests used:
[1] = target: T1, 5-Lipoxygenase enzyme (10,000 g supernatant from RBL-1 cells) (Rattus norvegicus, UniProt P12527); assay: RBL-1 5-Lipoxygenase Screen; type: biochemical; conditions: decrease in 5-HETE + 5,12-diHETE formation relative to control, read-out: Per cent inhibition of 5-lipoxygenase at × μM concentration; for inhibition at 20 µM: at 20 μM compound
T1 construct: prepared as a 10,000 g supernatant from RBL-1 cells; endogenous in cells; host or cells: RBL-1 cells (10,000 g supernatant)
T1 sequence (P12527 1-673): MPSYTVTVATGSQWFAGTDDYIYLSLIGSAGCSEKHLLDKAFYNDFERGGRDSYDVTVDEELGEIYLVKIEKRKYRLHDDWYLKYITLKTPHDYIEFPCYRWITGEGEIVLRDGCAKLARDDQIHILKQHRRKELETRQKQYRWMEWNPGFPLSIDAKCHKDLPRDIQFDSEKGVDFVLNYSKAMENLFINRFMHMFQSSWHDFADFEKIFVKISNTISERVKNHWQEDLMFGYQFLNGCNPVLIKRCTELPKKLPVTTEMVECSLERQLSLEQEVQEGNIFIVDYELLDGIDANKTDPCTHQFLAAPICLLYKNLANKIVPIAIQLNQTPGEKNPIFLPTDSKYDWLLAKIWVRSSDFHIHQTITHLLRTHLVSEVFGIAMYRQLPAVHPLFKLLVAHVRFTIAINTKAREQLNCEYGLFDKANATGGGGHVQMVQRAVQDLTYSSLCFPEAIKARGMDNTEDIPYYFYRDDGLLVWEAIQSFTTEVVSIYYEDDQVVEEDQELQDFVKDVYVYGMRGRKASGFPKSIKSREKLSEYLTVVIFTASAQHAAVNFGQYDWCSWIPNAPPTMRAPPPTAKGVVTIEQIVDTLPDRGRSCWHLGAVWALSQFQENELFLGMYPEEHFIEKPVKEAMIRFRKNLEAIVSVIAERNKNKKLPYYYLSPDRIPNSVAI
Experimental: (1) RBL-1 5-Lipoxygenase Screen
5-Lipoxygenase enzyme was prepared as a 10,000 g supernatant from RBL-1 cells by the method of Jakschik (Jakschik, B. A., F. F. Sun, L. M. Lee, and M. M. Steinhoff, 1980, Biochem. Biophys. Res. Comm. 95, 103). The 10,000 g supernatant was diluted with homogenization buffer to the equivalent of 1.5-2.5×10^7 cells. ml.^-1 and made 2 mM with respect to CaCl2. Aliquots of 0.5 ml were then dispensed into tubes, and incubated at 29° C. with 5 ul ethanol or compound in ethanol at the desired concentration for 2 min. Then [1-^14 C] arachidonic acid was added in buffer to give a final concentration of 6.3 uM and 0.2 uCi per incubation, and the reaction continued at 29° C. for 2 min. The reaction was terminated by adding 1 ml of acetone and cooling on ice, 0.5 ml of ice-cold saline and 100 ul of 2N formic acid were added, and the mixture was extracted with 2×2 ml of chloroform. The extract was stored under N2 at -20° C. until analysis by chromatography. Activity was measured as the percentage of total radioactivity found in 5-HETE and 5,12-diHETE, and inhibition calculated as the decrease in formation of the sum of these two species in compound-treated incubates relative to control incubations.

[2] = tested on: cyclo-oxygenase (bovine seminal vesicle microsomes); assay: Cyclo-oxygenase Screen; type: biochemical; conditions: at 50 μM compound; decrease in prostaglandin formation
Experimental: (2) Cyclo-oxygenase Screen
Compounds were preincubated with the incubation constitutents for 5 min at 37° C. before the reaction was started by the addition of the arachidonic acid. The reaction was continued at 37° C. for 2 min, then stopped by placing the incubations on ice and the addition of 1.2 ml 0.2M citric acid. Unmetabolised substrate and prostaglandin products were extracted in ethyl acetate (2×4 ml), the combined extracts washed with 0.8 ml water, and separated by thin-layer chromatography (Kieselgel GF254 plates in ethyl acetate:acetone:glacial acetic acid, 90:10:1, v/v). Recovery was 65-80%. The regions on the thin-layer chromatography plate that chromatographed with authentic arachidonic acid or prostaglandins E2 and F2 α (Rf 's 0.70, 0.28 and 0.16 respectively) were scraped and the radioactivity in each determined by liquid scintillation counting with a correction for quenching being made by the external standard-channels ratio method. Inhibition of cyclo-oxygenase activity was calculated from the decrease in prostaglandin formation. Each compound concentration was tested in triplicate and the 50% inhibitory concentration, if determined, was calculated by linear regression from the inhibitory data at, at least three different compound concentrations.

Structure (SMILES): CCCCCCCCCCCC#Cc1cnccc1/C=C/C(=O)O [Example 2, 3-[3-(1-Tridecynyl)-4-pyridyl)prop-2-enoic acid]
- inhibition at 20 µM [1]: 30%

Structure (SMILES): CCCCCCCCCCCC#Cc1ccoc1/C=C/C(=O)O [Example 7, 3-[3-(1-Tridecynyl)-2-furanyl]prop-2-enoic acid]
- Per cent inhibition of cyclo-oxygenase at 50 μM concentration [2]: 46%
- inhibition at 5 µM ([1]; at 5 μM compound): 38%

Structure (SMILES): CCCCCCCCCCCC#Cc1cnccc1C=C(C(=O)O)C(=O)O [Example 4, 2-[3-(1-Tridecynyl)-4-pyridyl]methylenepropane-1,3-dioic acid]
- Per cent inhibition of cyclo-oxygenase at 50 μM concentration [2]: 15%
- inhibition at 20 µM [1]: 72%
